In paper PMC9424235, “Small molecule-mediated allosteric activation of the base excision repair enzyme 8-oxoguanine DNA glycosylase and its impact on mitochondrial function” (Scientific Reports, 2022):
Where “and” joins values, the source holds several entries; their conditions need not be identical. Identical values can stand only once. Each block holds one molecule with its values, some of them ahead of it.

How the values were obtained:
[1] = test system: OGG1; set-up: method as in PMID 12592398; details: cited from earlier work
[2] = molecular target: human OGG1 (Homo sapiens, UniProt O15527); assay: Fluorescent steady-state kinetic assay of OGG1 activation (initial rates; screening concentration response)
Chain of human OGG1 (O15527 12-345): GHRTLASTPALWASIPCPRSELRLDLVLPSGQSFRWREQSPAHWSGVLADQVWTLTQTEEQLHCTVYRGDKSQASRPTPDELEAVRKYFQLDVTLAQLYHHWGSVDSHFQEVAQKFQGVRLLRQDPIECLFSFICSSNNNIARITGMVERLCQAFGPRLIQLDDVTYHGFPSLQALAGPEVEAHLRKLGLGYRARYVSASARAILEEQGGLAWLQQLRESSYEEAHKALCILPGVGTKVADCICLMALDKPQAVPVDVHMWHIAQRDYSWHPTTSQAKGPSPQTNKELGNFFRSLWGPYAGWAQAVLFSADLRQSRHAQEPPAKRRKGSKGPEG

[3] = test system: A549 cells; assay: Nuclear DNA damage by γ-H2AX staining; type: cell-based, human
[4] = test system: A549 cells; assay: TOM20 immunofluorescence; type: cell-based, human; details: 0.3 mM PQ, 48 h
[5] = test system: A549 cells; assay: DNA ligase III (LIG3) protein content by imaging; type: cell-based, human; details: 48 h of PQ at either 0.6 or 1 mM
[6] = test system: A549 cells; assay: Measurement of energy metabolites (ATP, ADP); type: cell-based, human
[7] = test system: A549 cells; assay: Mitochondrial membrane integrity (MitoTracker orange texture analysis); type: cell-based, human; details: 24 h
[8] = test system: A549 cells; assay: Mitochondrial ROS with MitoSOX; type: cell-based, human
[9] = test system: A549 cells; assay: DRP1 content by quantitative imaging; type: cell-based, human; details: 0.6 mM PQ, 48 h
[10] = test system: A549 cells; assay: mtDNA damage by long/short chain PCR; type: cell-based, human; details: PQ 0.3–3 mM
[11] = test system: A549 cells; assay: OGG1 content by imaging; type: cell-based, human; details: 0.6 mM PQ, N = 1 in triplicate
[12] = test system: A549 cells; assay: ROS production with CM-H2DCFDA (DCF) imaging; type: cell-based, human; details: for EC50: Homo sapiens
[13] = initial rate analysis, random mechanism

Structure (SMILES): Nc1nc2nc(N)[nH]c2c(=O)[nH]1 [Compound 8-aminoGua, 8-aminoguanine]
acceleration / activation level of AP lyase activity [1]: > 35 fold
substrate turnover [1]: 72%

β value as percent of catalytic activity of OGG1 in the presence of 8-bromoGua [2]: 50%
OGG1 initial rate relative to that in the presence of 200 μM 8-bromoGua ([2]; 200 μM activator, substrate 80 nM): ~ 25%
Km ([2]; initial rate analysis with activator and Substrate A varied, OGG1 10 nM): 15 ± 3 nM
kcat ([2]; initial rate analysis with activator and Substrate A varied, OGG1 10 nM, random mechanism fit): 0.006 ± 0.001 s⁻¹ and 0.006 ± 1 s⁻¹
α (coefficient of interaction between activator and substrate) [2, 13]: 1.3 ± 0.4
β (factor of kcat activation) [2, 13]: 18 ± 3
Structure (SMILES): Nc1nc2cc[nH]c2c(=O)[nH]1 [Compound 9-deazaGua, 9-deazaguanine]

Structure (SMILES): C[n+]1ccc(-c2cc[n+](C)cc2)cc1.[Cl-].[Cl-] [Paraquat, N, N′-dimethyl-4,4′-bipyridinium dichloride]
rise in γH2AX (nuclear DNA damage) [3]: 2 fold
TOM20 immunofluorescence increase above baseline [4]: ~25%
decline of LIG3 levels [5]: about 50%
ATP levels ([6]; 24 h with PQ, concentrations not given at the place, listed as PQ): 3.13 ± 0.14 μmol/gm protein and 2.49 ± 0.67 μmol/gm protein and 1.99 ± 0.45 μmol/gm protein
ADP levels ([6]; PQ 3 mM, 48 h, time-course experiment): 68.69 ± 1.47 μmol/gm protein
ATP Average ([6]; paraquat 0.3 mM alone, 48 h): 2.56 µmols/g protein and 2.83 µmols/g protein and 1.89 µmols/g protein
ATP Average ([6]; paraquat 0.6 mM alone, 48 h): 1.43 µmols/g protein and 1.67 µmols/g protein and 1.19 µmols/g protein
ATP Average ([6]; paraquat 1 mM alone, 48 h): 1.47 µmols/g protein and 0.92 µmols/g protein and 1.02 µmols/g protein
ADP Average ([6]; paraquat 3 mM alone, 48 h): 40.48 µmols/g protein and 41.33 µmols/g protein and 53.45 µmols/g protein
ATP Average ([6]; paraquat 3 mM alone, 48 h): 0.96 µmols/g protein and 0.61 µmols/g protein and 0.63 µmols/g protein
ATP Average ([6]; paraquat 3 mM alone, 48 h, listed as PQ): 0.63 ± 0.05 µmols/g protein and 0.96 ± 0.10 µmols/g protein and 0.61 ± 0.09 µmols/g protein
concentration giving maximum effect on mitochondrial membrane integrity [7]: 3 mM
maximal mitochondrial ROS signal intensity (MitoSOX) ([8]; 3 mM): 1.75 fold
EC50 ([8]; Homo sapiens, A549, 24 h of exposure): 280 µM
decline of DRP1 content compared to control [9]: about 24 ± 0.02%
concentration giving maximal mtDNA damage [10]: 0.6 mM
increase of OGG1 content above baseline [11]: 88.3%
maximum ROS (DCF) over baseline ([12]; 0.6 mM, 48 h): 30 fold
maximum ROS (DCF) over baseline ([12]; 3 mM, 24 h): 30 fold
EC50 ([12]; A549, 24 h): 1600 µM
EC50 ([12]; A549, 48 h): 340 µM
